Test results reported in patent publication US7118895B2, “Process for producing aglycon by using diglycosidase and flavor-improved food containing the aglycon and converting agent to be used in the process” (Amano Enzyme Inc., priority 2000, dated 2006).

System: Crude diglycosidase
Assay: Examination of pH in the conversion into isoflavone aglycons by diglycosidase using soybean materials
Type: biochemical, Penicillium multicolor IAM7153
Set-up: Decomposition efficiency of genistin family in soymilk / Decomposition efficiency of genistin family in defatted soybean / Decomposition efficiency of daidzin family in defatted soybean: concentration or dose not given beside the values
Conditions: for Decomposition efficiency of genistin family in roasted soy flour: 55° C.
Outline: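 Each soybean material (50 mg) is suspended and set to a pH between 2 and 11. Crude diglycosidase, adjusted to 1.88 AU/mL in enzyme solution of the same pH, is added, and the mixture is incubated at 55° C. Ethanol is added at 0, 1, 3 and 6 h, then supernatants go to HPLC.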

[1] = pH4.8, heat treatment of enzyme: no, reaction time 0 h
[2] = pH4.8, heat treatment of enzyme: no, reaction time 1 h
[3] = pH4.8, heat treatment of enzyme: no, reaction time 3 h
[4] = pH4.8, heat treatment of enzyme: no, reaction time 6 h
[5] = pH4.8, heat treatment of enzyme: yes, reaction time 6 h
[6] = pH6.6, heat treatment of enzyme: no, reaction time 0 h
[7] = pH6.6, heat treatment of enzyme: no, reaction time 1 h
[8] = pH6.6, heat treatment of enzyme: no, reaction time 3 h
[9] = pH6.6, heat treatment of enzyme: no, reaction time 6 h
[10] = pH6.6, heat treatment of enzyme: yes, reaction time 6 h

- Decomposition efficiency of genistin family in concentrated soybean protein (pH1.6, heat treatment of enzyme: no, reaction time 0 h): not detected
- Decomposition efficiency of genistin family in concentrated soybean protein (pH1.6, heat treatment of enzyme: no, reaction time 1 h): not detected
- Decomposition efficiency of genistin family in concentrated soybean protein (pH1.6, heat treatment of enzyme: no, reaction time 3 h): not detected
- Decomposition efficiency of genistin family in concentrated soybean protein (pH1.6, heat treatment of enzyme: no, reaction time 6 h): not detected
- Decomposition efficiency of genistin family in concentrated soybean protein (pH1.6, heat treatment of enzyme: yes, reaction time 6 h): not detected
- Decomposition efficiency of genistin family in roasted soy flour (pH2, heat treatment of enzyme no, reaction time 0 h): not detected
- Decomposition efficiency of genistin family in roasted soy flour (pH2, heat treatment of enzyme no, reaction time 1 h): not detected
- Decomposition efficiency of genistin family in roasted soy flour (pH2, heat treatment of enzyme no, reaction time 3 h): not detected
- Decomposition efficiency of genistin family in roasted soy flour (pH2, heat treatment of enzyme no, reaction time 6 h): not detected
- Decomposition efficiency of genistin family in roasted soy flour (pH2, heat treatment of enzyme yes, reaction time 6 h): not detected
- Decomposition efficiency of genistin family in soymilk (pH2.3, heat treatment of enzyme: no, reaction time 0 h): 58.2%
- Decomposition efficiency of genistin family in soymilk (pH2.3, heat treatment of enzyme: no, reaction time 1 h): 57.5%
- Decomposition efficiency of genistin family in soymilk (pH2.3, heat treatment of enzyme: no, reaction time 3 h): 54.1%
- Decomposition efficiency of genistin family in soymilk (pH2.3, heat treatment of enzyme: no, reaction time 6 h): 52.1%
- Decomposition efficiency of genistin family in soymilk (pH2.3, heat treatment of enzyme: yes, reaction time 6 h): 54.3%
- Decomposition efficiency of genistin family in defatted soybean (pH2.6, heat treatment of enzyme: no, reaction time 0 h): 43.8%
- Decomposition efficiency of genistin family in defatted soybean (pH2.6, heat treatment of enzyme: no, reaction time 1 h): 44.4%
- Decomposition efficiency of genistin family in defatted soybean (pH2.6, heat treatment of enzyme: no, reaction time 3 h): 45.4%
- Decomposition efficiency of genistin family in defatted soybean (pH2.6, heat treatment of enzyme: no, reaction time 6 h): 43.5%
- Decomposition efficiency of genistin family in defatted soybean (pH2.6, heat treatment of enzyme: yes, reaction time 6 h): 42.0%
- Decomposition efficiency of genistin family in concentrated soybean protein (pH2.7, heat treatment of enzyme: no, reaction time 0 h): not detected
- Decomposition efficiency of genistin family in concentrated soybean protein (pH2.7, heat treatment of enzyme: no, reaction time 1 h): not detected
- Decomposition efficiency of genistin family in concentrated soybean protein (pH2.7, heat treatment of enzyme: no, reaction time 3 h): not detected
- Decomposition efficiency of genistin family in concentrated soybean protein (pH2.7, heat treatment of enzyme: no, reaction time 6 h): not detected
- Decomposition efficiency of genistin family in concentrated soybean protein (pH2.7, heat treatment of enzyme: yes, reaction time 6 h): not detected
- Decomposition efficiency of genistin family in roasted soy flour (pH3, heat treatment of enzyme no, reaction time 0 h): not detected
- Decomposition efficiency of genistin family in roasted soy flour (pH3, heat treatment of enzyme no, reaction time 1 h): not detected
- Decomposition efficiency of genistin family in roasted soy flour (pH3, heat treatment of enzyme no, reaction time 3 h): not detected
- Decomposition efficiency of genistin family in roasted soy flour (pH3, heat treatment of enzyme no, reaction time 6 h): not detected
- Decomposition efficiency of genistin family in roasted soy flour (pH3, heat treatment of enzyme yes, reaction time 6 h): not detected
- Decomposition efficiency of genistin family in defatted soybean (pH3.4, heat treatment of enzyme: no, reaction time 0 h): 43.8%
- Decomposition efficiency of genistin family in defatted soybean (pH3.4, heat treatment of enzyme: no, reaction time 1 h): 41.6%
- Decomposition efficiency of genistin family in defatted soybean (pH3.4, heat treatment of enzyme: no, reaction time 3 h): 36.4%
- Decomposition efficiency of genistin family in defatted soybean (pH3.4, heat treatment of enzyme: no, reaction time 6 h): 30.4%
- Decomposition efficiency of genistin family in defatted soybean (pH3.4, heat treatment of enzyme: yes, reaction time 6 h): 39.8%
- Decomposition efficiency of genistin family in soymilk (pH3.5, heat treatment of enzyme: no, reaction time 0 h): 58.2%
- Decomposition efficiency of genistin family in soymilk (pH3.5, heat treatment of enzyme: no, reaction time 1 h): 27.9%
- Decomposition efficiency of genistin family in soymilk (pH3.5, heat treatment of enzyme: no, reaction time 3 h): 7.5%
- Decomposition efficiency of genistin family in soymilk (pH3.5, heat treatment of enzyme: no, reaction time 6 h): 2.7%
- Decomposition efficiency of genistin family in soymilk (pH3.5, heat treatment of enzyme: yes, reaction time 6 h): 52.7%
- Decomposition efficiency of genistin family in concentrated soybean protein (pH3.7, heat treatment of enzyme: no, reaction time 0 h): not detected
- Decomposition efficiency of genistin family in concentrated soybean protein (pH3.7, heat treatment of enzyme: no, reaction time 1 h): not detected
- Decomposition efficiency of genistin family in concentrated soybean protein (pH3.7, heat treatment of enzyme: no, reaction time 3 h): not detected
- Decomposition efficiency of genistin family in concentrated soybean protein (pH3.7, heat treatment of enzyme: no, reaction time 6 h): not detected
- Decomposition efficiency of genistin family in concentrated soybean protein (pH3.7, heat treatment of enzyme: yes, reaction time 6 h): not detected
- Decomposition efficiency of genistin family in roasted soy flour (pH4, heat treatment of enzyme no, reaction time 0 h): not detected
- Decomposition efficiency of genistin family in roasted soy flour (pH4, heat treatment of enzyme no, reaction time 1 h): not detected
- Decomposition efficiency of genistin family in roasted soy flour (pH4, heat treatment of enzyme no, reaction time 3 h): not detected
- Decomposition efficiency of genistin family in roasted soy flour (pH4, heat treatment of enzyme no, reaction time 6 h): not detected
- Decomposition efficiency of genistin family in roasted soy flour (pH4, heat treatment of enzyme yes, reaction time 6 h): not detected
- Decomposition efficiency of genistin family in defatted soybean [1]: 43.2%
- Decomposition efficiency of genistin family in soymilk [1]: 58.6%
- Decomposition efficiency of genistin family in defatted soybean [2]: 42.8%
- Decomposition efficiency of genistin family in soymilk [2]: 41.0%
- Decomposition efficiency of genistin family in defatted soybean [3]: 37.5%
- Decomposition efficiency of genistin family in soymilk [3]: 23.9%
- Decomposition efficiency of genistin family in defatted soybean [4]: 31.1%
- Decomposition efficiency of genistin family in soymilk [4]: 11.3%
- Decomposition efficiency of genistin family in defatted soybean [5]: 41.7%
- Decomposition efficiency of genistin family in soymilk [5]: 51.9%
- Decomposition efficiency of genistin family in roasted soy flour (pH5, heat treatment of enzyme no, reaction time 0 h): not detected
- Decomposition efficiency of genistin family in roasted soy flour (pH5, heat treatment of enzyme no, reaction time 1 h): not detected
- Decomposition efficiency of genistin family in roasted soy flour (pH5, heat treatment of enzyme no, reaction time 3 h): not detected
- Decomposition efficiency of genistin family in roasted soy flour (pH5, heat treatment of enzyme no, reaction time 6 h): not detected
- Decomposition efficiency of genistin family in roasted soy flour (pH5, heat treatment of enzyme yes, reaction time 6 h): not detected
- Decomposition efficiency of genistin family in concentrated soybean protein (pH5.1, heat treatment of enzyme: no, reaction time 0 h): not detected
- Decomposition efficiency of genistin family in concentrated soybean protein (pH5.1, heat treatment of enzyme: no, reaction time 1 h): not detected
- Decomposition efficiency of genistin family in concentrated soybean protein (pH5.1, heat treatment of enzyme: no, reaction time 3 h): not detected
- Decomposition efficiency of genistin family in concentrated soybean protein (pH5.1, heat treatment of enzyme: no, reaction time 6 h): not detected
- Decomposition efficiency of genistin family in concentrated soybean protein (pH5.1, heat treatment of enzyme: yes, reaction time 6 h): not detected
- Decomposition efficiency of genistin family in defatted soybean (pH5.4, heat treatment of enzyme: no, reaction time 0 h): 43.2%
- Decomposition efficiency of genistin family in defatted soybean (pH5.4, heat treatment of enzyme: no, reaction time 1 h): 48.0%
- Decomposition efficiency of genistin family in defatted soybean (pH5.4, heat treatment of enzyme: no, reaction time 3 h): 44.6%
- Decomposition efficiency of genistin family in defatted soybean (pH5.4, heat treatment of enzyme: no, reaction time 6 h): 39.7%
- Decomposition efficiency of genistin family in defatted soybean (pH5.4, heat treatment of enzyme: yes, reaction time 6 h): 45.8%
- Decomposition efficiency of genistin family in soymilk (pH6.2, heat treatment of enzyme: no, reaction time 0 h): 58.6%
- Decomposition efficiency of genistin family in soymilk (pH6.2, heat treatment of enzyme: no, reaction time 1 h): 52.6%
- Decomposition efficiency of genistin family in soymilk (pH6.2, heat treatment of enzyme: no, reaction time 3 h): 41.2%
- Decomposition efficiency of genistin family in soymilk (pH6.2, heat treatment of enzyme: no, reaction time 6 h): 35.8%
- Decomposition efficiency of genistin family in soymilk (pH6.2, heat treatment of enzyme: yes, reaction time 6 h): 51.5%
- Decomposition efficiency of genistin family in roasted soy flour (pH6.5, heat treatment of enzyme no, reaction time 0 h): not detected
- Decomposition efficiency of genistin family in roasted soy flour (pH6.5, heat treatment of enzyme no, reaction time 1 h): not detected
- Decomposition efficiency of genistin family in roasted soy flour (pH6.5, heat treatment of enzyme no, reaction time 3 h): not detected
- Decomposition efficiency of genistin family in roasted soy flour (pH6.5, heat treatment of enzyme no, reaction time 6 h): not detected
- Decomposition efficiency of genistin family in roasted soy flour (pH6.5, heat treatment of enzyme yes, reaction time 6 h): not detected
- Decomposition efficiency of genistin family in concentrated soybean protein [6]: not detected
- Decomposition efficiency of genistin family in defatted soybean [6]: 47.1%
- Decomposition efficiency of genistin family in concentrated soybean protein [7]: not detected
- Decomposition efficiency of genistin family in defatted soybean [7]: 50.1%
- Decomposition efficiency of genistin family in concentrated soybean protein [8]: not detected
- Decomposition efficiency of genistin family in defatted soybean [8]: 48.3%
- Decomposition efficiency of genistin family in concentrated soybean protein [9]: not detected
- Decomposition efficiency of genistin family in defatted soybean [9]: 46.1%
- Decomposition efficiency of genistin family in concentrated soybean protein [10]: not detected
- Decomposition efficiency of genistin family in defatted soybean [10]: 45.7%
- Decomposition efficiency of genistin family in soymilk (pH7.2, heat treatment of enzyme: no, reaction time 0 h): 57.0%
- Decomposition efficiency of genistin family in soymilk (pH7.2, heat treatment of enzyme: no, reaction time 1 h): 56.9%
- Decomposition efficiency of genistin family in soymilk (pH7.2, heat treatment of enzyme: no, reaction time 3 h): 51.5%
- Decomposition efficiency of genistin family in soymilk (pH7.2, heat treatment of enzyme: no, reaction time 6 h): 46.4%
- Decomposition efficiency of genistin family in soymilk (pH7.2, heat treatment of enzyme: yes, reaction time 6 h): 51.1%
- Decomposition efficiency of genistin family in defatted soybean (pH7.8, heat treatment of enzyme: no, reaction time 0 h): 45.8%
- Decomposition efficiency of genistin family in defatted soybean (pH7.8, heat treatment of enzyme: no, reaction time 1 h): 46.6%
- Decomposition efficiency of genistin family in defatted soybean (pH7.8, heat treatment of enzyme: no, reaction time 3 h): 44.4%
- Decomposition efficiency of genistin family in defatted soybean (pH7.8, heat treatment of enzyme: no, reaction time 6 h): 42.2%
- Decomposition efficiency of genistin family in defatted soybean (pH7.8, heat treatment of enzyme: yes, reaction time 6 h): 39.9%
- Decomposition efficiency of genistin family in roasted soy flour (pH8.5, heat treatment of enzyme no, reaction time 0 h): not detected
- Decomposition efficiency of genistin family in roasted soy flour (pH8.5, heat treatment of enzyme no, reaction time 1 h): not detected
- Decomposition efficiency of genistin family in roasted soy flour (pH8.5, heat treatment of enzyme no, reaction time 3 h): not detected
- Decomposition efficiency of genistin family in roasted soy flour (pH8.5, heat treatment of enzyme no, reaction time 6 h): not detected
- Decomposition efficiency of genistin family in roasted soy flour (pH8.5, heat treatment of enzyme yes, reaction time 6 h): not detected
- Decomposition efficiency of genistin family in concentrated soybean protein (pH8.6, heat treatment of enzyme: no, reaction time 0 h): not detected
- Decomposition efficiency of genistin family in concentrated soybean protein (pH8.6, heat treatment of enzyme: no, reaction time 1 h): not detected
- Decomposition efficiency of genistin family in concentrated soybean protein (pH8.6, heat treatment of enzyme: no, reaction time 3 h): not detected
- Decomposition efficiency of genistin family in concentrated soybean protein (pH8.6, heat treatment of enzyme: no, reaction time 6 h): not detected
- Decomposition efficiency of genistin family in concentrated soybean protein (pH8.6, heat treatment of enzyme: yes, reaction time 6 h): not detected
- Decomposition efficiency of genistin family in soymilk (pH11.6, heat treatment of enzyme: no, reaction time 0 h): 54.2%
- Decomposition efficiency of genistin family in soymilk (pH11.6, heat treatment of enzyme: no, reaction time 1 h): 57.7%
- Decomposition efficiency of genistin family in soymilk (pH11.6, heat treatment of enzyme: no, reaction time 3 h): 52.6%
- Decomposition efficiency of genistin family in soymilk (pH11.6, heat treatment of enzyme: no, reaction time 6 h): 49.5%
- Decomposition efficiency of genistin family in soymilk (pH11.6, heat treatment of enzyme: yes, reaction time 6 h): 47.7%
SMILES: O=C(O)CC(=O)OC[C@H]1O[C@@H](Oc2cc(O)c3c(=O)c(-c4ccc(O)cc4)coc3c2)[C@H](O)[C@@H](O)[C@@H]1O [malonylgenistin, 6″-O-malonylgenistin]
